Test results as given in US4962109A, “Insecticidally and acaricidally active pyrimidine esters and intermediates therefor” (Imperial Chemical Industries PLC, priority 1985, dated 1990).

How the values were obtained:
Assay type in all cases: in vivo
[1] = test system: Tetranychus urticae (spider mites - adult); experiment: Contact test on spider mites - adult (TUa), French bean leaf, mortality; settings: 72 h, contact, 3 days, read-out: TUa grading of mortality
Protocol: (§1) The activity of the Product was determined using a variety of insect pests. The Product was used in the form of liquid preparations containing 500, 250 or 100 parts per million (ppm) by weight of the Product. The preparations were made by dissolving the Product in acetone and diluting the solutions with water containing 0.01% by weight of a wetting agent sold under the trade name "LISSAPOL" NX until the liquid preparations contained the required concentration of the Product. "Lissapol" is a Registered Trade Mark.
(§2) The test procedure adopted with regard to each pest was basically the same and comprised supporting a number of the pests on a medium which was usually a host plant or a foodstuff on which the pests feed, and treating either or both the pests and the medium with the preparations. The mortality of the pests was then assessed at periods usually varying from one to three days after the treatment.
(§3) The results of the tests are given in Table III for each of the Products, at the rate in parts per million given in the second column as a grading of mortality designated as A, B or C wherein A indicates 80-100% mortality or knockdown, B indicates 50-79% mortality or knockdown and C indicates less than 50% mortality or knockdown.

[2] = test system: Tetranychus urticae (spider mites - ova); experiment: Contact test on spider mites - ova (TUe), French bean leaf, mortality; settings: 144 h, contact, 6 days, read-out: TUe grading of mortality
Protocol: as §1, §2, §3

[3] = test system: Myzus persicae (aphids); experiment: Contact test on aphids (MP), Chinese Cabbage leaf, mortality; settings: 72 h, contact, 3 days, read-out: MP grading of mortality
Protocol: as §1, §2, §3

[4] = test system: Nephotettix cincticeps (green leaf hopper - nymphs); experiment: Contact test on green leaf hopper nymphs (NC), Rice plant, mortality; settings: 48 h, contact, 2 days, read-out: NC grading of mortality
Protocol: as §1, §2, §3
NC Nephotettix cincticeps

[5] = test system: Musca domestica (houseflies - adults); experiment: Knockdown test on houseflies - adults (MD/KD), Cotton wool/sugar; settings: 4 hours, read-out: MD/KD grading of knockdown
Protocol: as §1, §2
In the case of the species Musca domestica (housefly), additional tests to determine the knockdown effect of the compounds were performed. PG,163
as §3

[6] = test system: Musca domestica (houseflies - adults); experiment: Contact test on houseflies - adults (MD), Cotton wool/sugar, mortality; settings: 72 h, contact, 3 days, read-out: MD grading of mortality
Protocol: as §1, §2, §3

[7] = test system: Blattella germanica (cockroach nymphs); experiment: Contact test on cockroach nymphs (BG/C), Plastic pot, mortality; settings: 48 h, contact, 2 days, read-out: BG/C grading of mortality
Protocol: as §1, §2, §3
BG/C Blattella germanica

[8] = test system: Heliothis virescens (tobacco budworm - larvae); experiment: Residual test on tobacco budworm larvae (HV), Cotton leaf, mortality; settings: 48 h, read-out: HV grading of mortality
Protocol: as §1, §2, §3
(tobacco budworm - larvae)

[9] = test system: Spodoptera exigua (lesser army worm - larvae); experiment: Residual test on lesser army worm larvae (SP), Cotton leaf, mortality; settings: 48 h, residual, 2 days, read-out: SP grading of mortality
Protocol: as §1, §2, §3
(lesser army worm - larvae)

[10] = test system: Diabrotica balteata (rootworm larvae); experiment: Residual test on rootworm larvae (DB), Filter paper/maize seed, mortality; settings: 48 h, residual, 2 days, read-out: DB grading of mortality
Protocol: as §1, §2, §3

SMILES	mortality at 500 ppm [1]	mortality at 500 ppm [2]	mortality at 500 ppm [3]	mortality at 500 ppm [4]	pest or weed control at 500 ppm [5]	mortality at 500 ppm [6]	mortality at 500 ppm [7]	mortality at 500 ppm [8]	mortality at 500 ppm [9]	mortality at 500 ppm [10]	mortality at 1000 ppm ([1]; 1000 ppm)	mortality at 1000 ppm ([2]; 1000 ppm)	mortality at 1000 ppm ([3]; 1000 ppm)	mortality at 1000 ppm ([4]; 1000 ppm)	pest or weed control at 1000 ppm ([5]; 1000 ppm)	mortality at 1000 ppm ([6]; 1000 ppm)	mortality at 1000 ppm ([7]; 1000 ppm)	mortality at 1000 ppm [8]	mortality at 1000 ppm ([9]; 1000 ppm)	mortality at 1000 ppm ([10]; 1000 ppm)
CC(C)(C)c1ncc(C(C(=O)OCc2c(F)c(F)c(F)c(F)c2F)C(C)(C)C)cn1 (racemic) [Compound 30, 2,3,4,5,6-pentafluorobenzyl (RS)-2-[2-(1,1-dimethylethyl)pyrimidin-5-yl]-3,3-dimethylbutanoate]	80 to 100%	< 50%	80 to 100%	80 to 100%	80 to 100%	80 to 100%	< 50%	80 to 100%	80 to 100%	80 to 100%										
CC(C)(C)c1ncc([C@H](C(=O)O[C@H](c2cccc(Oc3ccccc3)n2)C(F)(F)F)C(C)(C)C)cn1 (racemic) [Compound 32, (RS)-1-(6-phenoxypyrid-2-yl)-2,2,2-trifluoroethyl (RS)-2-[2-(1,1-dimethylethyl)pyrimidin-5-yl]-3,3-dimethylbutanoate]	80 to 100%	50 to 79%	80 to 100%	80 to 100%	80 to 100%	80 to 100%	< 50%	80 to 100%	80 to 100%	80 to 100%										
COCc1c(F)c(F)c(COC(=O)C(c2cnc(C(F)(F)F)nc2)C(C)(C)C)c(F)c1F (racemic) [Compound 41, 2,3,5,6-tetrafluoro-4-(methoxymethyl)benzyl (RS)-2-[2-(trifluoromethyl)pyrimidin-5-yl]-3,3-dimethylbutanoate]	80 to 100%	< 50%	80 to 100%	80 to 100%	80 to 100%	80 to 100%	80 to 100%	80 to 100%	80 to 100%	< 50%										
CCC(C)(C)c1ncc([C@H](C(=O)O[C@H](C)c2cccc(Oc3ccccc3)n2)C(C)(C)C)cn1 (racemic) [Compound 57, (RS)-1-(6-phenoxypyrid-2-yl)ethyl (RS)-2-[2-(1,1-dimethylpropyl)pyrimidin-5-yl]-3,3dimethylbutanoate]	80 to 100%	< 50%	80 to 100%	80 to 100%	80 to 100%	80 to 100%	< 50%	80 to 100%	80 to 100%	< 50%										
CCC(C)(C)c1ncc(C(C(=O)OCc2c(F)c(F)c(COC)c(F)c2F)C(C)(C)C)cn1 (racemic) [Compound 61, 2,3,5,6-tetrafluoro-4-(methoxymethyl)benzyl (RS)-2-[2-(1,1-dimethylpropyl)pyrimidin-5-yl]-3,3-dimethylbutanoate]	80 to 100%	< 50%	80 to 100%	80 to 100%	80 to 100%	80 to 100%	< 50%	< 50%	80 to 100%	< 50%										
CCC(C)(C)c1ncc(C(C(=O)OCc2ccc(F)c(Oc3ccccc3)c2)C(C)(C)C)cn1 (racemic) [Compound 68, 4-fluoro-3-phenoxybenzyl (RS)-2-[2-(1,1-dimethylpropyl)pyrimidin-5-yl]-3,3-dimethylbutanoate]	80 to 100%	< 50%	80 to 100%	80 to 100%	< 50%	< 50%	< 50%	80 to 100%	50 to 79%	< 50%										
CC(C)c1ncc([C@H](C(=O)O[C@H](C)c2cccc(Oc3ccccc3)n2)C(C)(C)C)cn1 (racemic) [Compound 74, (RS)-1-(6-phenoxypyridin-2-yl)ethyl (RS)-2-[2-(1-methylethyl)pyrimidin-5-yl]-3,3-dimethylbutanoate]	80 to 100%	< 50%	50 to 79%	80 to 100%	< 50%	50 to 79%	< 50%	80 to 100%	80 to 100%	< 50%										
COCc1c(F)c(F)c(COC(=O)C(c2cnc(C(C)C)nc2)C(C)(C)C)c(OC)c1F (racemic) [Compound 76, 3,5,6-trifluoro-2-methoxy-4-(methoxymethyl)benzyl (RS)-2-[2-(1-methylethyl)pyrimidin-5-yl]-3,3-dimethylbutanoate]	80 to 100%	< 50%	80 to 100%	80 to 100%	80 to 100%	50 to 79%	50 to 79%	80 to 100%	80 to 100%	< 50%										
CC(OC(=O)C(c1cnc(C2CC2)nc1)C(C)(C)C)c1cccc(Oc2ccccc2)n1 (racemic) [Compound 78, RS-1-(6-phenoxypyrid-2-yl)ethyl (RS)-2-(2-cyclopropylpyrimidin-5-yl)-3,3-dimethylbutanoate]	80 to 100%	50 to 79%	80 to 100%	80 to 100%	80 to 100%	< 50%	50 to 79%	80 to 100%	80 to 100%	80 to 100%										
CC(OC(=O)C(c1cnc(-c2ccccc2)nc1)C(C)(C)C)c1cccc(Oc2ccccc2)n1 (racemic) [Compound 82, (RS)-1-(6-phenoxpyrid-2-yl)ethyl (RS)-2-(2-phenylpyrimidin-5-yl)-3,3-dimethylbutanoate]											80 to 100%	< 50%	80 to 100%	80 to 100%	80 to 100%	< 50%	< 50%	80 to 100%	80 to 100%	< 50%
C#CCc1c(F)c(F)c(COC(=O)C(c2cnc(C(C)(C)C)nc2)C2CC2)c(F)c1F (racemic) [Compound 91, 2,3,5,6-tetrafluoro-4-(prop-2-yn-1-yl)benzyl (RS)-2-[2-(1,1-dimethylethyl)pyrimidin-5-yl]-2-cyclopropylacetate]	80 to 100%	80 to 100%	80 to 100%	80 to 100%	80 to 100%	80 to 100%	80 to 100%	80 to 100%	80 to 100%	80 to 100%										
COCc1c(F)c(F)c(COC(=O)C(c2cnc(C(C)C)nc2)C(C)(C)C)c(F)c1F (racemic) [Compound 131, 2,3,5,6-tetrafluoro-4-(methoxymethyl)benzyl (RS)-2-[2-(1-methylethyl)-pyrimidin-5-yl]-3,3dimethylbutanoate]	80 to 100%	80 to 100%	80 to 100%	80 to 100%	80 to 100%	< 50%	< 50%	< 50%	80 to 100%	80 to 100%										
COCc1c(F)c(F)c(COC(=O)C(c2cnc(C3CC3)nc2)C(C)(C)C)c(F)c1F (racemic) [Compound 135, 2,3,5,6-tetrafluoro-4-(methoxymethyl)benzyl (RS)-2-(2-cyclopropylpyrimidin-5-yl)-3,3-dimethylbutanoate]	80 to 100%	80 to 100%	80 to 100%	80 to 100%	80 to 100%	80 to 100%	< 50%	< 50%	80 to 100%	80 to 100%										
